From patent US20050282743A1, “Molecular interactions in cells” (Arbor Vita Corporation, priority 2001, published 2005)
Ends that are not written are not given here. Peptide text beside a SMILES is read from it. * marks the point of attachment. Biotin = O=C1N[C@H]2[C@H](CS[C@H]2CCCCC(=O)*)N1

Experiments:
Assay in all cases: G' assay (10 uM PL peptide), results of TABLE 7 and TABLE 12
Format in all cases: binding
[1] = target: T1, PDZ protein (GST-PDZ fusion) (Homo sapiens, UniProt O14745)
T1 construct: made in house; host or cells: E. coli (DH5alpha, BL21 or JM109)
T1 sequence (O14745 1-358): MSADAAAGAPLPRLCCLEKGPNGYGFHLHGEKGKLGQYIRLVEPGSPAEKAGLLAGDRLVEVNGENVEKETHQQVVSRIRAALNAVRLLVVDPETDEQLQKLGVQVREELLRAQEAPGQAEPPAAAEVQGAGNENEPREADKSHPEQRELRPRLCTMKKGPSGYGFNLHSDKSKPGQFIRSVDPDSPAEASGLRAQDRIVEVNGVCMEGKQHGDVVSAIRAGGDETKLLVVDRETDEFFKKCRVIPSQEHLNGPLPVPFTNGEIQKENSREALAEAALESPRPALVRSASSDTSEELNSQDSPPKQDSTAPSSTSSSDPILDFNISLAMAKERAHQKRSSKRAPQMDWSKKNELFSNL
Procedure, shortened: (§1)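 Same steps as the G-zero format, apart from a peptide concentration of 10 uM in place of 20 uM in step 2. Amino-terminally biotinylated PL peptides bind GST-PDZ fusions, and retained peptide is quantified by 450 nm absorbance.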

[2] = target: T2, PDZ protein (GST-PDZ fusion) (Homo sapiens, UniProt P29475); details: PDZ NOS1, PDZ Domain 1
T2 construct: made in house; host or cells: E. coli (DH5alpha, BL21 or JM109)
T2 sequence (P29475 whole entry, the tested form may be a part): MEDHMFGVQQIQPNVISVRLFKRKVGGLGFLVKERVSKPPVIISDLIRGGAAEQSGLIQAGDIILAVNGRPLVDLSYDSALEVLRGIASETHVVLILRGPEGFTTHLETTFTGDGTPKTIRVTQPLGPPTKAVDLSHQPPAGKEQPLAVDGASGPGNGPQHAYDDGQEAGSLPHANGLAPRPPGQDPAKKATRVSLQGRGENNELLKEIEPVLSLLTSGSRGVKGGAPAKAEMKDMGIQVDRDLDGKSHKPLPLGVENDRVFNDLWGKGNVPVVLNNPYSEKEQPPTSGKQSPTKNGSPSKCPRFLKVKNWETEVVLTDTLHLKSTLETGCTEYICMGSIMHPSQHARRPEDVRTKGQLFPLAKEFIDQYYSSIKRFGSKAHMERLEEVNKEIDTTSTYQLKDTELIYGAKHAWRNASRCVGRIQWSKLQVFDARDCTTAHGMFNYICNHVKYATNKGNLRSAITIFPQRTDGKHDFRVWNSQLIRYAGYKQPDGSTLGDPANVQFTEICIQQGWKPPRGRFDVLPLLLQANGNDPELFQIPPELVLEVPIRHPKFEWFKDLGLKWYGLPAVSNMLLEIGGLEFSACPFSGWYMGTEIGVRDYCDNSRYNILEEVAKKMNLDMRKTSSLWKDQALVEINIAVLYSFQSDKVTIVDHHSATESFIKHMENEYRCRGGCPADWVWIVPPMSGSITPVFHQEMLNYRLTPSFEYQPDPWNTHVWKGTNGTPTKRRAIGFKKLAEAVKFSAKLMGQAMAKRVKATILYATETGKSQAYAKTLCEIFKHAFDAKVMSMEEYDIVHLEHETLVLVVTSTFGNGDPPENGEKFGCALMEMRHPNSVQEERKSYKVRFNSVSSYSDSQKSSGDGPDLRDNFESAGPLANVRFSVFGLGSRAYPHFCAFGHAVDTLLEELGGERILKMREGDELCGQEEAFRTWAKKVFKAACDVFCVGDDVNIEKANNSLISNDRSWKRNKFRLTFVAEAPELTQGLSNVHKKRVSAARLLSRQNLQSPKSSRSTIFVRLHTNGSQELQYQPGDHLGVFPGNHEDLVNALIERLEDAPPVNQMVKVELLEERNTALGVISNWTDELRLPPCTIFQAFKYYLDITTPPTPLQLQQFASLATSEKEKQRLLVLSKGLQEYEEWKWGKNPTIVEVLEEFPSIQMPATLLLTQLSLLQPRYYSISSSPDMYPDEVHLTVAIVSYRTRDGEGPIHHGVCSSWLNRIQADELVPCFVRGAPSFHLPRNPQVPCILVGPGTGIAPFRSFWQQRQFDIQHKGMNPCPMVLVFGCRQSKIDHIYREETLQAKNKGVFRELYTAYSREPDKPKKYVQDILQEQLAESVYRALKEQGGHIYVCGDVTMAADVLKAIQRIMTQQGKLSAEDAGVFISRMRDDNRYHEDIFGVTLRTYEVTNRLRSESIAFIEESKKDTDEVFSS
Procedure, shortened: as §1

[3] = target: T3, PDZ protein (GST-PDZ fusion) (Homo sapiens, UniProt Q9BYB0); details: PDZ SHANK3, PDZ Domain 1
T3 construct: made in house; host or cells: E. coli (DH5alpha, BL21 or JM109)
T3 sequence (Q9BYB0 whole entry, the tested form may be a part): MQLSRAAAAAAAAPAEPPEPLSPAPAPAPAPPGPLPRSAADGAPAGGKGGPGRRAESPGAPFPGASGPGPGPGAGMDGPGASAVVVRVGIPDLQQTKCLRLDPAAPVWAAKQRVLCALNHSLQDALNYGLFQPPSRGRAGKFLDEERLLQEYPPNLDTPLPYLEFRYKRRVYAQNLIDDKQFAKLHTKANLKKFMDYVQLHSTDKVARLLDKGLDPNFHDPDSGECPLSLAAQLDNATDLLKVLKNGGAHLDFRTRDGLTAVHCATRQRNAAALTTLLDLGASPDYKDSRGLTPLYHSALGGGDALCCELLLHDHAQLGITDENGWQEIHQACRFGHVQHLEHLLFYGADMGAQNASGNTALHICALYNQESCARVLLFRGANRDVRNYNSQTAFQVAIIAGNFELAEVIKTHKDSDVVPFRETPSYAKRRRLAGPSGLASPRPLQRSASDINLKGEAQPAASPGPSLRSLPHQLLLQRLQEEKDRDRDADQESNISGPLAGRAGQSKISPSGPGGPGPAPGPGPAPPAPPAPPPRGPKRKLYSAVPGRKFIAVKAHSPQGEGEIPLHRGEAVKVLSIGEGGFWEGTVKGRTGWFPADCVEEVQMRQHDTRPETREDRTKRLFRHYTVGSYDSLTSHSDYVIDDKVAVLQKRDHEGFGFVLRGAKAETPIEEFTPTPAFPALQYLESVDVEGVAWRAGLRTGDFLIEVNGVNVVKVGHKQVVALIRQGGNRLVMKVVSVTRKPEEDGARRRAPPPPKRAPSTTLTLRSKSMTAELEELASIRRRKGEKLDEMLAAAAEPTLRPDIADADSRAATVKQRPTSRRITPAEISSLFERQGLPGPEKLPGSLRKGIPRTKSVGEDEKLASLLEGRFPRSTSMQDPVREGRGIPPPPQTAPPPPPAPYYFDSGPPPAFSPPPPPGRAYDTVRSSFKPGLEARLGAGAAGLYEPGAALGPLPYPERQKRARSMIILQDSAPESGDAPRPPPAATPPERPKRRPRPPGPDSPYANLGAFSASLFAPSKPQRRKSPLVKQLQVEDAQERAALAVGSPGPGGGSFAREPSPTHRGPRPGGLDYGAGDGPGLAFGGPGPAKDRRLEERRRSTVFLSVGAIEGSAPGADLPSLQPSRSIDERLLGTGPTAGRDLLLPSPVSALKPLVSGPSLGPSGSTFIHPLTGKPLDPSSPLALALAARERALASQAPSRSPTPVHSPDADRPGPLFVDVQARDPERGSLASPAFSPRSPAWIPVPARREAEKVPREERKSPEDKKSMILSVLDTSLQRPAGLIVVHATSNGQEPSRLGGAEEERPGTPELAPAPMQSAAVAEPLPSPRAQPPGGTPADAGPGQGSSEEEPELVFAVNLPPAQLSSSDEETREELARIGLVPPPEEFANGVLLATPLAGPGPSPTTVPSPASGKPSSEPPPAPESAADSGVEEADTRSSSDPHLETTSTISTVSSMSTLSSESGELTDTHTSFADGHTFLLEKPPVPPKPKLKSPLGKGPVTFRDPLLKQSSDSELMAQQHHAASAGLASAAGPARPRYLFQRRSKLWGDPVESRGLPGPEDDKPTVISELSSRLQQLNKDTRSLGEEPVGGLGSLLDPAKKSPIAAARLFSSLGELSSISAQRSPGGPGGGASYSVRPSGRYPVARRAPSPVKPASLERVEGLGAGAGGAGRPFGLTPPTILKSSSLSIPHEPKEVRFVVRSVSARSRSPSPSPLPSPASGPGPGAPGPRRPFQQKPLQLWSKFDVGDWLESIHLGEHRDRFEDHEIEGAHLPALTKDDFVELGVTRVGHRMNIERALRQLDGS
Procedure, shortened: as §1

[4] = target: T4, PDZ protein (GST-PDZ fusion) (Homo sapiens, UniProt Q9HD26); details: PDZ PIST, PDZ Domain 1
T4 construct: made in house; host or cells: E. coli (DH5alpha, BL21 or JM109)
Procedure, shortened: as §1

[5] = target: T5, PDZ protein (GST-PDZ fusion) (Homo sapiens, UniProt O14908); details: PDZ TAX IP2, PDZ Domain 1
T5 construct: made in house; host or cells: E. coli (DH5alpha, BL21 or JM109)
T5 sequence (O14908 1-333): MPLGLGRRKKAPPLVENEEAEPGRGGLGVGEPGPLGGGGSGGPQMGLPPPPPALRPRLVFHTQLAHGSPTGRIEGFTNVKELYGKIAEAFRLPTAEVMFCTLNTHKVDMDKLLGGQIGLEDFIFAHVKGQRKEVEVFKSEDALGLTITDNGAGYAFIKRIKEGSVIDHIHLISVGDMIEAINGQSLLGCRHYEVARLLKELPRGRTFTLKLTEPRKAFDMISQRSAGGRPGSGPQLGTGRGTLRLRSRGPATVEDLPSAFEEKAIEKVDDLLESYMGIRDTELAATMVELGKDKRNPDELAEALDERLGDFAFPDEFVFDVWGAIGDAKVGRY
Procedure, shortened: as §1

[6] = target: T6, PDZ protein (GST-PDZ fusion) (Homo sapiens, UniProt P50479); details: PDZ LIM RIL, PDZ Domain 1
T6 construct: made in house; host or cells: E. coli (DH5alpha, BL21 or JM109)
T6 sequence (P50479 1-330): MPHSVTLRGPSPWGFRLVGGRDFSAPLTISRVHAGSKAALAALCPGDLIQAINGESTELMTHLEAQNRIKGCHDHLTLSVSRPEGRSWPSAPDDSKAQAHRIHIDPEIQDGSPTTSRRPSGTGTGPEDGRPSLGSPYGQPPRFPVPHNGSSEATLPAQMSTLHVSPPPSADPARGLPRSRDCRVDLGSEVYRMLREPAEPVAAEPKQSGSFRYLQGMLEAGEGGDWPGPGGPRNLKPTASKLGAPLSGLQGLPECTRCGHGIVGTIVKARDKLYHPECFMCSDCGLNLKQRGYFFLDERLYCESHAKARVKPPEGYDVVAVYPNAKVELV
Procedure, shortened: as §1

[7] = target: T7, PDZ protein (GST-PDZ fusion) (Homo sapiens, UniProt Q9NSN8); details: PDZ Syntrophin gamma-1, PDZ Domain 1
T7 construct: made in house; host or cells: E. coli (DH5alpha, BL21 or JM109)
T7 sequence (Q9NSN8 1-517): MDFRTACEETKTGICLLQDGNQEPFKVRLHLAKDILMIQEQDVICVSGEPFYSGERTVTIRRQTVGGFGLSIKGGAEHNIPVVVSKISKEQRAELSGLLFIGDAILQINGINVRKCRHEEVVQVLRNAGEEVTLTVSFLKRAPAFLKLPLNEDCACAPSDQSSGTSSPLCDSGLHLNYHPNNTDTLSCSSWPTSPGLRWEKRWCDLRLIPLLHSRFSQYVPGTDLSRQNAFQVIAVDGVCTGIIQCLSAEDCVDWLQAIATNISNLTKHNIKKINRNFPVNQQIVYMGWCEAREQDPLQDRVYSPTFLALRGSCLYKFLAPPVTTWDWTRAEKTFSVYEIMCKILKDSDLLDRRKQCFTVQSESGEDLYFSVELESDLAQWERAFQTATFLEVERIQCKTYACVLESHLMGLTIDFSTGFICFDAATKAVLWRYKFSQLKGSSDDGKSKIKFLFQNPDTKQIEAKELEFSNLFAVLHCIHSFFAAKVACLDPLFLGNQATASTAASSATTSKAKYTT
Procedure, shortened: as §1

Compound	Classification ([1]; PDZ EBP50, PDZ Domain 1)	Classification ([1]; PDZ EBP50, PDZ Domain 2)	Classification [2]	Classification [3]	Classification [5]	other results
CC[C@H](C)[C@H](NC(=O)[C@H](CC(=O)O)NC(=O)[C@H](CCC(=O)O)NC(=O)[C@H](CCCNC(=N)N)NC(=O)[C@@H](NC(=O)CCCC[C@@H]1SC[C@@H]2NC(=O)N[C@@H]21)[C@@H](C)O)C(=O)N[C@@H](Cc1ccc(O)cc1)C(=O)N[C@H](C(=O)N[C@@H](CC(N)=O)C(=O)N[C@@H](Cc1ccc(O)cc1)C(=O)N1CCC[C@H]1C(=O)N[C@H](C(=O)N[C@@H](Cc1ccccc1)C(=O)N[C@@H](CO)C(=O)N[C@@H](CCCNC(=N)N)C(=O)N[C@@H](CCCNC(=N)N)C(=O)N1CCC[C@H]1C(=O)N[C@@H](CCCCN)C(=O)N[C@H](C(=O)N[C@@H](CCCNC(=N)N)C(=O)N[C@H](C(=O)O)C(C)C)[C@@H](C)O)[C@@H](C)O)C(C)C [DNAM-1] (Biotin-TREDIYVNYPTFSRRPKTRV-OH; C-terminus assumed)	1 (A450 nm 0-1)	1 (A450 nm 0-1)	1 (A450 nm 0-1)	2 (A450 nm 1-2)		Classification [4]: 4 (A450 nm 3-4)
CKR5_HUMAN (ERASSVYTRSTGEQEISVGL)					1 (A450 nm 0-1)	
CC(C)C[C@H](NC(=O)CNC(=O)[C@@H](NC(=O)[C@H](CO)NC(=O)[C@H](CC(N)=O)NC(=O)[C@H](Cc1ccccc1)NC(=O)CNC(=O)[C@H](C)NC(=O)[C@H](C)NC(=O)[C@H](Cc1ccccc1)NC(=O)[C@@H](NC(=O)CCCC[C@@H]1SC[C@@H]2NC(=O)N[C@@H]21)[C@@H](C)O)[C@@H](C)O)C(=O)N1CCC[C@H]1C(=O)N[C@@H](Cc1c[nH]cn1)C(=O)N[C@@H](CO)C(=O)N[C@H](C(=O)N[C@H](C(=O)N[C@@H](CCCNC(=N)N)C(=O)N[C@H](C(=O)O)C(C)C)[C@@H](C)O)[C@@H](C)O [Neuroligin] (Biotin-TFAAGFNSTGLPHSTTRV-OH; C-terminus assumed)	2 (A450 nm 1-2)	1 (A450 nm 0-1)	1 (A450 nm 0-1)	3 (A450 nm 2-3)		
ELLQFCRTPNPALKNGQYWV (Biotin-ELLQFCRTPNPALKNGQYWV)			2 (A450 nm 1-2)			Classification [6]: 2 (A450 nm 1-2)
CC(C)C[C@H](NC(=O)[C@H](C)NC(=O)[C@@H](NC(=O)[C@@H](NC(=O)[C@H](Cc1c[nH]cn1)NC(=O)[C@H](CC(C)C)NC(=O)CNC(=O)[C@H](CCC(N)=O)NC(=O)CNC(=O)CNC(=O)[C@H](C)NC(=O)[C@H](C)NC(=O)[C@H](CCCNC(=N)N)NC(=O)[C@H](C)NC(=O)[C@H](CO)NC(=O)[C@H](CC(=O)O)NC(=O)[C@H](CC(=O)O)NC(=O)[C@H](Cc1c[nH]c2ccccc12)NC(=O)[C@H](C)NC(=O)CCCC[C@@H]1SC[C@@H]2NC(=O)N[C@@H]21)C(C)C)[C@@H](C)O)C(=O)O [LPAP] (Biotin-AWDDSARAAGGQGLHVTAL-OH; C-terminus assumed)	5 (A450 nm of 4 more than 2× repeated)	4 (A450 nm 3-4)	1 (A450 nm 0-1)	3 (A450 nm 2-3)		Classification [4]: 1 (A450 nm 0-1)
CC[C@H](C)[C@H](NC(=O)[C@H](Cc1ccc(O)cc1)NC(=O)[C@@H](NC(=O)[C@@H]1CCCN1C(=O)[C@H](CCC(N)=O)NC(=O)[C@H](CCC(=O)O)NC(=O)[C@H](CCC(N)=O)NC(=O)[C@H](C)NC(=O)[C@@H](NC(=O)[C@H](CC(C)C)NC(=O)[C@H](CC(C)C)NC(=O)[C@H](CCCNC(=N)N)NC(=O)[C@H](Cc1ccc(O)cc1)NC(=O)[C@H](CCSC)NC(=O)[C@H](C)NC(=O)[C@H](C)NC(=O)[C@@H]1CCCN1C(=O)[C@H](CCSC)NC(=O)[C@@H](NC(=O)[C@H](CCCCN)NC(=O)CCCC[C@@H]1SC[C@@H]2NC(=O)N[C@@H]21)[C@@H](C)O)[C@@H](C)O)C(C)C)C(=O)O [MINT-1] (Biotin-KTMPAAMYRLLTAQEQPVYI-OH; C-terminus assumed)			4 (A450 nm 3-4)			
CC(C)C[C@H](NC(=O)[C@H](CC(=O)O)NC(=O)[C@H](CO)NC(=O)[C@H](CCC(=O)O)NC(=O)CNC(=O)[C@H](Cc1ccc(O)cc1)NC(=O)[C@H](CC(C)C)NC(=O)[C@H](C)NC(=O)[C@H](CO)NC(=O)[C@H](CO)NC(=O)[C@H](Cc1ccccc1)NC(=O)[C@H](C)NC(=O)[C@H](C)NC(=O)[C@H](Cc1ccc(O)cc1)NC(=O)[C@H](CC(=O)O)NC(=O)[C@H](CC(C)C)NC(=O)[C@H](C)NC(=O)CNC(=O)[C@@H]1CCCN1C(=O)[C@@H](NC(=O)CCCC[C@@H]1SC[C@@H]2NC(=O)N[C@@H]21)C(C)C)C(=O)O [a-actinin 2] (Biotin-VPGALDYAAFSSALYGESDL-OH; C-terminus assumed)					5 (A450 nm of 4 more than 2× repeated)	Classification [6]: 5 (A450 nm of 4 more than 2× repeated); Classification [7]: 1 (A450 nm 0-1)
CC(C)C[C@H](NC(=O)[C@H](C)NC(=O)[C@H](CO)NC(=O)CNC(=O)[C@@H](NC(=O)CCCC[C@@H]1SC[C@@H]2NC(=O)N[C@@H]21)[C@@H](C)O)C(=O)N[C@@H](CCC(N)=O)C(=O)N[C@@H](C)C(=O)N[C@@H](Cc1c[nH]c2ccccc12)C(=O)N[C@@H](CCCNC(=N)N)C(=O)N[C@@H](Cc1c[nH]cn1)C(=O)N[C@H](C(=O)N[C@@H](CO)C(=O)N[C@@H](CCCNC(=N)N)C(=O)N[C@@H](CCC(N)=O)C(=O)N[C@@H](C)C(=O)N[C@H](C(=O)N[C@@H](CCC(=O)O)C(=O)N[C@@H](CO)C(=O)N[C@H](C(=O)N[C@H](C(=O)O)C(C)C)[C@@H](C)O)[C@@H](C)O)[C@@H](C)O [HPV E6 #66 (modified)] (Biotin-TGSALQAWRHTSRQATESTV-OH; C-terminus assumed)					2 (A450 nm 1-2)	Classification [7]: 1 (A450 nm 0-1)
CC[C@H](C)[C@H](NC(=O)[C@H](CCCCN)NC(=O)[C@@H](NC(=O)[C@H](CO)NC(=O)[C@@H]1CCCN1C(=O)[C@H](Cc1ccccc1)NC(=O)[C@@H](NC(=O)[C@@H](NC(=O)[C@H](CCCNC(=N)N)NC(=O)[C@H](CCC(=O)O)NC(=O)[C@H](CC(C)C)NC(=O)[C@H](CC(C)C)NC(=O)[C@H](CC(C)C)NC(=O)[C@@H](NC(=O)CNC(=O)[C@@H](NC(=O)CCCC[C@@H]1SC[C@@H]2NC(=O)N[C@@H]21)C(C)C)[C@@H](C)O)C(C)C)[C@@H](C)CC)C(C)C)C(=O)N[C@@H](C)C(=O)N[C@H](C(=O)N[C@@H](CC(C)C)C(=O)N[C@H](C(=O)O)C(C)C)[C@@H](C)O [Adenovirus E4 Type9]						Classification ([2]; PL peptide 10 uM): 5 (A450 nm of 4 more than 2× repeated); Classification ([4]; PL peptide 10 uM): 1 (A450 nm 0-1)
